From PubChem BioAssay AID248 (DTP/NCI, 2004)
Several values for one entry are separate records, joined by “and”; a condition that tells them apart may be missing. Equal values may be shown once. Toxic doses and inconclusive results are not listed. Rule as the data show it: active = T/C of 150% or more; inactive = T/C below 125%.

Tested on: L1210 leukemia ip in BDF1 mice, survival T/C
Assay: NCI In Vivo Anticancer Drug Screen. Data for tumor model L1210 Leukemia (intraperitoneal) in B6D2F1 (BDF1) mice
Conditions: endpoint: mean survival time, higher = longer survival
How it was run: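 Transplanted-tumor mice were given test agent; controls received vehicle only. Survival readings from the two groups were divided (treated over control).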

[1] = dose: 100.0 mg/kg/injection, schedule: Q01DX001 (ip), vehicle: saline
[2] = dose: 100.0 mg/kg/injection, schedule: Q04DX003 (ip), vehicle: Klucel (hydroxypropylcellulose) (HPC)
[3] = dose: 200.0 mg/kg/injection, schedule: Q01DX001 (ip), vehicle: saline
[4] = dose: 200.0 mg/kg/injection, schedule: Q04DX003 (ip), vehicle: Klucel (hydroxypropylcellulose) (HPC)
[5] = dose: 400.0 mg/kg/injection, schedule: Q01DX001 (ip), vehicle: saline
[6] = dose: 400.0 mg/kg/injection, schedule: Q04DX003 (ip), vehicle: Klucel (hydroxypropylcellulose) (HPC)
[7] = dose: 100.0 mg/kg/injection, schedule: Q01DX009 (ip), vehicle: saline with Tween-80
[8] = dose: 100.0 mg/kg/injection, schedule: Q04DX003 (ip), vehicle: saline with Tween-80
[9] = dose: 200.0 mg/kg/injection, schedule: Q01DX009 (ip), vehicle: saline with Tween-80
[10] = dose: 200.0 mg/kg/injection, schedule: Q04DX003 (ip), vehicle: saline with Tween-80
[11] = dose: 400.0 mg/kg/injection, schedule: Q04DX003 (ip), vehicle: saline with Tween-80
[12] = dose: 100.0 mg/kg/injection, schedule: Q01DX001 (ip), vehicle: Klucel (hydroxypropylcellulose) (HPC)
[13] = dose: 200.0 mg/kg/injection, schedule: Q01DX001 (ip), vehicle: Klucel (hydroxypropylcellulose) (HPC)
[14] = dose: 100.0 mg/kg/injection, schedule: Q01DX009 (ip), vehicle: Klucel (hydroxypropylcellulose) (HPC)
[15] = dose: 200.0 mg/kg/injection, schedule: Q01DX009 (ip), vehicle: Klucel (hydroxypropylcellulose) (HPC)
[16] = dose: 400.0 mg/kg/injection, schedule: Q01DX009 (ip), vehicle: Klucel (hydroxypropylcellulose) (HPC)
[17] = dose: 400.0 mg/kg/injection, schedule: Q01DX001 (ip), vehicle: Klucel (hydroxypropylcellulose) (HPC)
[18] = dose: 100.0 mg/kg/injection, schedule: Q01DX001 (ip), vehicle: carboxymethylcellulose (CMC)
[19] = dose: 200.0 mg/kg/injection, schedule: Q01DX001 (ip), vehicle: carboxymethylcellulose (CMC)
[20] = dose: 400.0 mg/kg/injection, schedule: Q01DX001 (ip), vehicle: carboxymethylcellulose (CMC)

Measured: T/C

C=C(C)C1CC=C(/C=N/O)CC1 (stereo not drawn)
inactive: [1] 104 % of control | dose: 100.0 mg/kg/injection, schedule: Q01DX009 (ip), vehicle: saline sonified 104 % of control | [2] 96 % of control | [3] 101 % of control | dose: 200.0 mg/kg/injection, schedule: Q01DX009 (ip), vehicle: saline sonified 97 % of control | [4] 98 % of control | [5] 95 % of control | dose: 400.0 mg/kg/injection, schedule: Q01DX009 (ip), vehicle: saline sonified 97 % of control | [6] 98 % of control

CCC(O)(CC(=O)O)c1ccccc1 (stereo not drawn)
inactive: [7] 91 % of control | [8] 104 % of control | [9] 96 % of control | [10] 104 % of control | [11] 105 % of control

Cc1cc(C)c(C[N+](C)(C)C)c(C)c1C
inactive: dose: 50.0 mg/kg/injection, schedule: Q01DX001 (ip), vehicle: saline 102 % of control

O=c1[nH]c(CCCOc2ccccc2)nc2ccccc12
inactive: dose: 50.0 mg/kg/injection, schedule: Q01DX001 (ip), vehicle: Klucel (hydroxypropylcellulose) (HPC) 93 % of control | [12] 104 % of control | [13] 104 % of control

OCc1ccc(O)cn1
inactive: [1] 97 % of control | [3] 87 % of control | [5] 94 % of control

CCOCCNc1ccc(S(=O)(=O)c2ccc(N)cc2)cc1N
inactive: [1] 95 % of control | [3] 90 % of control | [5] 97 % of control

CCCCCCCCCCCCCCCCCCNC(=O)N(CC)c1ccccc1C
inactive: [14] 101 % of control | [2] 93 % of control | [15] 98 % of control | [4] 90 % of control | [16] 101 % of control | [6] 92 % of control

O=C(Nc1ccc(C2=NCCN2)c(O)c1)c1ccc(C(=O)Nc2ccc(C3=NCCN3)c(O)c2)cc1
inactive: dose: 8.0 mg/kg/injection, schedule: Q01DX Z (ip), vehicle: carboxymethylcellulose (CMC) 103 % of control | dose: 16.0 mg/kg/injection, schedule: Q01DX Z (ip), vehicle: carboxymethylcellulose (CMC) 88 % of control | dose: 31.0 mg/kg/injection, schedule: Q01DX Z (ip), vehicle: carboxymethylcellulose (CMC) 88 % of control | dose: 62.0 mg/kg/injection, schedule: Q01DX Z (ip), vehicle: carboxymethylcellulose (CMC) 90 % of control

CCCCCOC(=O)CN(CC(=O)OCCCCC)c1ccccc1
inactive: [14] 88 % of control | [8] 101 % of control | [15] 99 % of control | [10] 98 % of control | [16] 91 % of control | [11] 95 % of control

CC1(C)CCC(C)(C)c2cc(O)ccc21
inactive: [1] 94 % of control | [2] 92 % of control | [3] 96 % of control | [4] 92 % of control | [5] 89 % of control | [6] 87 % of control

CC(C)(C)c1ccc(SC/C=C/COc2ccccc2)cc1
inactive: dose: 75.0 mg/kg/injection, schedule: Q01DX009 (ip), vehicle: Klucel (hydroxypropylcellulose) (HPC) 101 % of control | dose: 150.0 mg/kg/injection, schedule: Q01DX009 (ip), vehicle: Klucel (hydroxypropylcellulose) (HPC) 90 % of control | dose: 300.0 mg/kg/injection, schedule: Q01DX009 (ip), vehicle: Klucel (hydroxypropylcellulose) (HPC) 91 % of control

CCCCCCCCOc1ccc(N(C)C(N)=S)cc1
inactive: [2] 97 % of control | [4] 101 % of control | [6] 106 % of control

CCOC(=O)c1cnc(SC)nc1Nc1ccccc1OC
inactive: [2] 90 % of control | [4] 92 % of control | [6] 87 % of control

CCOC(=O)C(C#N)=C([SH2+])[SH2+].CCOC(=O)C(C#N)=C([SH2+])[SH2+].[Cu+2].c1ccc(C[P+](c2ccccc2)(c2ccccc2)c2ccccc2)cc1
inactive: [1] 92 % of control | dose: 100.0 mg/kg/injection, schedule: Q04DX003 (ip), vehicle: saline 102 % of control | [3] 87 % of control | dose: 200.0 mg/kg/injection, schedule: Q04DX003 (ip), vehicle: saline 97 % of control | [5] 89 % of control | dose: 400.0 mg/kg/injection, schedule: Q04DX003 (ip), vehicle: saline 91 % of control

Cc1ccc(N)cc1[N+](=O)[O-]
inactive: [12] 105 % of control | [13] 95 % of control | [17] 95 % of control

O=c1[nH]cnc2[nH]cc([N+](=O)[O-])c12
inactive: dose: 50.0 mg/kg/injection, schedule: Q01DX001 (ip), vehicle: carboxymethylcellulose (CMC) 101 % of control | [18] 89 % of control | [19] 98 % of control and 87 % of control | [20] 93 % of control and 97 % of control

CCOc1ccc(OCC)c(NC(=O)Nc2cc(Cl)ccc2OC)c1
inactive: dose: 100.0 mg/kg/injection, schedule: Q01DX001 (ip), vehicle: saline with Tween-80 95 % of control | [7] 111 % of control and 90 % of control | dose: 100.0 mg/kg/injection, schedule: Q04DX002 (ip), vehicle: saline with Tween-80 98 % of control and 91 % of control | [8] 96 % of control | dose: 200.0 mg/kg/injection, schedule: Q01DX001 (ip), vehicle: saline with Tween-80 88 % of control | [9] 101 % of control and 92 % of control | dose: 200.0 mg/kg/injection, schedule: Q04DX002 (ip), vehicle: saline with Tween-80 94 % of control and 103 % of control | [10] 94 % of control | dose: 400.0 mg/kg/injection, schedule: Q01DX001 (ip), vehicle: saline with Tween-80 87 % of control | dose: 400.0 mg/kg/injection, schedule: Q01DX009 (ip), vehicle: saline with Tween-80 89 % of control | dose: 400.0 mg/kg/injection, schedule: Q04DX002 (ip), vehicle: saline with Tween-80 91 % of control and 92 % of control | [11] 91 % of control

CCN(CC)CCC(C=NCC(CCN(CC)CC)(c1cccc2ccccc12)C(C)C)(c1cccc2ccccc12)C(C)C (stereo not drawn)
inactive: dose: 1.5 mg/kg/injection, schedule: Q04DX002 (ip), vehicle: saline + alcohol 108 % of control | dose: 3.1 mg/kg/injection, schedule: Q04DX002 (ip), vehicle: saline + alcohol 102 % of control | dose: 6.25 mg/kg/injection, schedule: Q04DX002 (ip), vehicle: saline + alcohol 94 % of control | dose: 12.5 mg/kg/injection, schedule: Q04DX002 (ip), vehicle: saline + alcohol 92 % of control | dose: 25.0 mg/kg/injection, schedule: Q04DX002 (ip), vehicle: saline + alcohol 92 % of control | dose: 25.0 mg/kg/injection, schedule: Q04DX002 (ip), vehicle: saline with Tween-80 92 % of control

CCCCCCCCCC(=O)NC(=S)Nc1ccc(Br)cc1
inactive: [12] 93 % of control | [14] 93 % of control and 98 % of control | dose: 100.0 mg/kg/injection, schedule: Q04DX002 (ip), vehicle: Klucel (hydroxypropylcellulose) (HPC) 98 % of control and 91 % of control | [2] 92 % of control | [13] 91 % of control | [15] 91 % of control | dose: 200.0 mg/kg/injection, schedule: Q04DX002 (ip), vehicle: Klucel (hydroxypropylcellulose) (HPC) 96 % of control and 88 % of control | [4] 94 % of control | [17] 94 % of control | dose: 400.0 mg/kg/injection, schedule: Q04DX002 (ip), vehicle: Klucel (hydroxypropylcellulose) (HPC) 96 % of control and 88 % of control | [6] 102 % of control

Cc1oc2c(O)ccc(N=Nc3cccc([N+](=O)[O-])c3)c2c1C
inactive: [15] 93 % of control | [16] 90 % of control

NC(=O)c1ncn(C2OC(CO)C(O)C2O)c1C(N)=O (stereo not drawn)
inactive: [18] 104 % of control | [19] 123 % of control

Cc1nc(N)[nH]c(=O)c1/C=C\C(=O)c1ccccc1
inactive: dose: 30.0 mg/kg/injection, schedule: Q01DX Z (ip), vehicle: carboxymethylcellulose (CMC) 96 % of control | dose: 60.0 mg/kg/injection, schedule: Q01DX Z (ip), vehicle: carboxymethylcellulose (CMC) 96 % of control | [18] 95 % of control | dose: 120.0 mg/kg/injection, schedule: Q01DX Z (ip), vehicle: carboxymethylcellulose (CMC) 87 % of control | [19] 89 % of control | dose: 240.0 mg/kg/injection, schedule: Q01DX Z (ip), vehicle: carboxymethylcellulose (CMC) 90 % of control | [20] 93 % of control
